From ChEMBL document CHEMBL1201862, “PubChem BioAssay data set” (2004) come the findings set out here.

Among the test systems are 786-0; A498; A549; ACHN; BT-549; DU-145; HCT-116; HCT-15; HL-60; HOP-62; IGROV-1; K562; MCF7; MDA-MB-435; Malme-3M; OVCAR-8; RPMI-8226; SK-MEL-5; SR; SW-620.
Common to all, as to test: NCI anticancer screen, dose series, 48 h

Values joined by “and” are separate entries in the source; they are usually repeats but may differ in a detail not shown here. Equal values may be shown once.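 Tested at 5 concentrations; 48 h exposure; 96-well plates; endpoints linearly interpolated, else capped at highest concentration. The concentration for 50% growth inhibition is given as GI50.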 Active and inactive are the calls of the source. Rule as the data show it: active = GI50 up to about 1.1 µM and inactive = higher.

`Oc1ncnc2c1nnn2CCCCCCCCCCCCn1nnc2c(O)ncnc21`: the GI50 with 786-0 is 22.9 µM (inactive); with A498 it was 25.2 µM (inactive); with A549 it was 36.9 µM (inactive); with ACHN, 32.3 µM (inactive); with BT-549, 28.8 µM (inactive); with DU-145, > 100 µM (inactive). Besides, the GI50 in the assay with HCT-116 is 18.2 µM (inactive); in the assay with HCT-15 it was above 100 µM; in the assay on HL-60, > 45.4 µM (inactive); in the assay on HOP-62 it was 21.7 µM (inactive); in the assay with IGROV-1 it was 22.2 µM (inactive); in the assay with K562, > 100 µM (inactive). Besides, the GI50 was 98.6 µM (inactive) in the assay on MCF7; > 100 µM (inactive) in the assay on MDA-MB-435; > 100 µM (inactive) in the assay on Malme-3M; 41.5 µM (inactive) in the assay on OVCAR-8; > 100 µM (inactive) in the assay with RPMI-8226; 19.8 µM (inactive) in the assay with SK-MEL-5. Further, the GI50 in the assay with SR was > 35.2 µM (inactive); in the assay on SW-620, > 100 µM (inactive).
For `CC1OC(OC2C(CO)OC(O[C@H]3CC[C@@]4(C)C(=CC[C@H]5[C@@H]6C[C@@H]7O[C@](O)(CC[C@H](C)COC8OC(CO)C(O)C(O)C8O)[C@@H](C)[C@@H]7[C@@]6(C)CC[C@@H]54)C3)C(OC3OC(C)C(O)C(O)C3O)C2O)C(O)C(O)C1O` (stereo partly specified), the GI50 with 786-0 is 2.52 µM (inactive); in the assay on A498, 26.7 µM (inactive); with A549 it was 2.35 µM (inactive); in the assay with ACHN it was 14.3 µM (inactive); with BT-549, 4.48 µM (inactive); in the assay with DU-145 it was 2.35 µM (inactive). Also, the GI50 in the assay on HCT-116 is 3.72 µM (inactive); in the assay on HCT-15, 2.75 µM; in the assay on HL-60 it was 4.66 µM (inactive); in the assay on HOP-62, 2.18 µM (inactive); in the assay on IGROV-1, 5.75 µM (inactive); in the assay with K562, 2.8 µM (inactive). Further, the GI50 with MCF7 was 7.8 µM (inactive); in the assay on MDA-MB-435, 2.07 µM (inactive); with Malme-3M it was 5.6 µM (inactive); with OVCAR-8, 4.06 µM (inactive); with RPMI-8226, 6.25 µM (inactive); in the assay with SK-MEL-5 it was 7.1 µM (inactive). Moreover, the figures for the GI50 in the assay with SR and with SW-620 were > 100 µM (inactive) and 0.644 µM (active), respectively.
`COC(=O)c1c(C)cccc1C1CN=NC12Cc1ccccc1C2=O` (stereo unspecified): the GI50 with 786-0 was > 100 µM (inactive); in the assay on A498, 98.6 µM (inactive); in the assay on A549 it was > 82.6 µM (inactive); in the assay with ACHN, > 100 µM (inactive); in the assay with BT-549 it was 54.5 µM (inactive); with DU-145, > 100 µM (inactive). For the same compound, the GI50 with HCT-116 was 46.2 µM (inactive); in the assay on HCT-15 it was 78.3 µM; in the assay with HL-60, 36.9 µM (inactive); in the assay on HOP-62, > 100 µM (inactive); in the assay with IGROV-1, > 91.2 µM (inactive); with K562, 37.1 µM (inactive). The GI50 in the assay on MCF7 is 2.46 µM (inactive); with MDA-MB-435, > 82 µM (inactive); in the assay on Malme-3M it was > 45.1 µM (inactive); in the assay with OVCAR-8, > 100 µM (inactive); with RPMI-8226 it was 35.3 µM (inactive); in the assay with SK-MEL-5 it was 37.4 µM (inactive). The GI50 with SR is 47.2 µM (inactive); in the assay with SW-620 it was > 100 µM (inactive).
Take `O=C1C(N2CCCC2)=CC(=O)c2c(O)c(N3CCCC3)c(Cl)c(O)c21`: the GI50 in the assay with 786-0, with A498, in the assay with A549, in the assay on ACHN, in the assay on BT-549 and in the assay with DU-145 was > 10 µM (inactive) throughout. Further, the GI50 in the assay on HCT-116, in the assay with HL-60, in the assay with HOP-62, in the assay on IGROV-1, with K562 and in the assay on MCF7 was > 10 µM (inactive) throughout. For the same compound, the GI50 in the assay with MDA-MB-435, in the assay on Malme-3M, with RPMI-8226, with SK-MEL-5, in the assay with SR and in the assay with SW-620 was > 10 µM (inactive) throughout.
`COc1ccc(/C=C2\C[C@H]3[C@@H]4CC=C5C[C@@H](O)CC[C@]5(C)[C@H]4CC[C@]3(C)\C2=N\O)cc1`: the GI50 was 14.3 µM (inactive) in the assay on 786-0; 25.9 µM (inactive) in the assay with A498; 7.98 µM (inactive) with A549; 19.5 µM (inactive) in the assay on ACHN; 7.69 µM (inactive) with BT-549; 22.4 µM (inactive) in the assay with DU-145. The GI50 in the assay on HCT-116 was 5.35 µM (inactive); in the assay on HCT-15 it was 6 µM; in the assay on HL-60, 3.17 µM (inactive); in the assay on HOP-62 it was 55.6 µM (inactive); with IGROV-1, 38.2 µM (inactive); in the assay with K562, 4.85 µM (inactive). In addition, the GI50 with MCF7 was 3.62 µM (inactive); in the assay with MDA-MB-435, 10.5 µM (inactive); with Malme-3M, 24.9 µM (inactive); with RPMI-8226 it was 2.26 µM (inactive); in the assay with SK-MEL-5 it was 5.04 µM (inactive); in the assay with SR, 1.89 µM (inactive). Also, in the assay on SW-620, the GI50 was 26.7 µM (inactive).
As to `CC(=O)OCC1OC(SC2=NC(=O)CS2)C(OC(C)=O)C(OC(C)=O)C1OC(C)=O` (stereo unspecified), the GI50 with 786-0 is > 100 µM (inactive); with A498, > 100 µM (inactive); with A549, > 100 µM (inactive); in the assay on ACHN it was > 100 µM (inactive); in the assay on BT-549, 93.5 µM (inactive) and 62.7 µM (inactive); in the assay on DU-145, > 100 µM (inactive). Further, the GI50 in the assay with HL-60 was 26.7 µM (inactive) and 23.4 µM (inactive); with HOP-62, > 100 µM (inactive); in the assay with IGROV-1, > 100 µM (inactive); in the assay on K562, 43.5 µM (inactive) and 40 µM (inactive); with MCF7 it was 71.4 µM (inactive); in the assay with MDA-MB-435, > 100 µM (inactive). For the same compound, the GI50 in the assay on Malme-3M is > 100 µM (inactive); with OVCAR-8 it was > 100 µM (inactive); in the assay with RPMI-8226, 51.8 µM (inactive) and 27.4 µM (inactive); in the assay on SK-MEL-5, > 100 µM (inactive); with SR, 39.6 µM (inactive) and 67.5 µM (inactive); with SW-620, > 100 µM (inactive).
For `NC(=S)N/N=C1\CCc2ccccc2C1`, the GI50 in the assay on 786-0, in the assay with A498, in the assay with A549, in the assay with ACHN, with BT-549 and in the assay on DU-145 was > 100 µM (inactive) each time. Besides, the GI50 was > 100 µM (inactive) in the assay with HCT-116; above 100 µM in the assay with HCT-15; 34.7 µM (inactive) in the assay on HL-60; > 100 µM (inactive) in the assay with HOP-62; > 100 µM (inactive) in the assay with IGROV-1; > 100 µM (inactive) with K562. In addition, the GI50 is 54.2 µM (inactive) in the assay on MCF7; > 100 µM (inactive) in the assay with MDA-MB-435; > 100 µM (inactive) in the assay on Malme-3M; > 100 µM (inactive) in the assay on OVCAR-8; > 100 µM (inactive) in the assay with RPMI-8226; > 100 µM (inactive) in the assay on SR. Besides, the GI50 in the assay with SW-620 is > 100 µM (inactive).
As for `Cc1ccc(/N=N/C(=N/NC(=O)c2cc(Cl)ccc2O)c2ccc(N(CCC#N)CCC#N)cc2C)cc1`, the GI50 was 28.1 µM (inactive) in the assay on 786-0; 12.1 µM (inactive) with A498; 28.6 µM (inactive) with A549; 24.4 µM (inactive) in the assay on ACHN; 27.5 µM (inactive) with BT-549; 26.9 µM (inactive) with DU-145. Moreover, the GI50 is 19 µM (inactive) in the assay with HCT-116; 32.1 µM with HCT-15; 4.55 µM (inactive) in the assay on HL-60; 32.8 µM (inactive) in the assay with HOP-62; 23.9 µM (inactive) in the assay with IGROV-1; 17.1 µM (inactive) in the assay with K562. Moreover, the GI50 in the assay on MCF7 was 24.7 µM (inactive); in the assay on MDA-MB-435, 34 µM (inactive); with Malme-3M, 20.6 µM (inactive); with OVCAR-8, 20.7 µM (inactive); with RPMI-8226, 8.36 µM (inactive); in the assay with SK-MEL-5, 16.8 µM (inactive). Besides, the GI50 in the assay on SR is 51.2 µM (inactive).
Turning to `COC(=O)C1=CS/C(=C2\S[C@@H]3[C@H](S2)[C@H]2C=C[C@@H]3C2)S1`, the GI50 in the assay with 786-0 was 92 µM (inactive); with A498 it was 4.52 µM (inactive); with A549, 30.8 µM (inactive); in the assay with BT-549, > 100 µM (inactive); with DU-145, > 100 µM (inactive); with HCT-116, 8.09 µM (inactive). Moreover, the GI50 with HCT-15 was 17.3 µM; in the assay on HL-60, 9.82 µM (inactive); in the assay on HOP-62, > 100 µM (inactive); in the assay with IGROV-1 it was 39.2 µM (inactive); in the assay on K562, 2.74 µM (inactive); in the assay with MCF7 it was 10.9 µM (inactive). In addition, the GI50 in the assay with MDA-MB-435 is 2.06 µM (inactive); with Malme-3M, > 100 µM (inactive); with OVCAR-8 it was > 100 µM (inactive); in the assay with RPMI-8226 it was 30.7 µM (inactive); in the assay on SK-MEL-5 it was 17.9 µM (inactive); with SR, 3.4 µM (inactive). For the same compound, in the assay with SW-620, the GI50 is 13.1 µM (inactive).
Consider `O=C1/C(=C\c2ccc([N+](=O)[O-])cc2)CS(=O)(=O)C/C1=C/c1ccc([N+](=O)[O-])cc1`, for which the GI50 in the assay on 786-0 was 0.149 µM (active); in the assay with A498 it was 1.79 µM (inactive); in the assay on A549, 1.85 µM (inactive); in the assay with ACHN, 0.705 µM (active); with BT-549, 0.316 µM (active); in the assay with DU-145, 2.92 µM (inactive). The GI50 in the assay with HCT-116 was 0.288 µM (active); with HCT-15 it was 0.117 µM; in the assay on HL-60, 0.324 µM (active); with HOP-62, 1.23 µM (inactive); with IGROV-1, 0.641 µM (active); in the assay with MCF7, 0.303 µM (active). For the same compound, the GI50 with MDA-MB-435 was 0.358 µM (active); in the assay with Malme-3M, 0.41 µM (active); in the assay with OVCAR-8 it was 0.107 µM (active); in the assay on RPMI-8226 it was 0.0942 µM (active); in the assay with SK-MEL-5, 1.4 µM (inactive); in the assay with SR, 0.03 µM (active). In addition, the GI50 with SW-620 is 0.262 µM (active).
